From PubChem BioAssay AID330 (DTP/NCI, 2004) come the findings set out here.

This experiment deals with P388 leukemia ip, CD2F1 mice, survival T/C. Description: NCI In Vivo Anticancer Drug Screen. Data for tumor model P388 Leukemia (intraperitoneal) in CD2F1 (CDF1) mice. Particulars: endpoint: median survival time, higher = longer survival. The procedure, abridged: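 Mice carrying the transplanted tumor received test compound or vehicle. Survival was recorded in each group, and the value is the treated-group measurement divided by that of the vehicle-treated control group.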

Setting [1] is: dose: 50.0 mg/kg/injection, schedule: Q01DX005 (ip), vehicle: Klucel (hydroxypropylcellulose) (HPC).
Where [2] appears, read: dose: 50.0 mg/kg/injection, schedule: Q01DX009 (ip), vehicle: Klucel (hydroxypropylcellulose) (HPC).
Where [3] appears, read: dose: 100.0 mg/kg/injection, schedule: Q01DX009 (ip), vehicle: Klucel (hydroxypropylcellulose) (HPC).
Where [4] appears, read: dose: 200.0 mg/kg/injection, schedule: Q01DX009 (ip), vehicle: Klucel (hydroxypropylcellulose) (HPC).
Setting [5] is: dose: 100.0 mg/kg/injection, schedule: Q04DX002 (ip), vehicle: saline with Tween-80.

“And” between values parts separate entries of the source, which are not always exact repeats. Identical values can stand only once. Toxic doses and inconclusive results are not listed.

Take `COC(OC)C1CC=CCCC1C(=O)O` (centres undefined): the T/C reads like this: (dose: 60.0 mg/kg/injection, schedule: Q01DX005 (ip), vehicle: saline) 91 % of control; (dose: 120.0 mg/kg/injection, schedule: Q01DX005 (ip), vehicle: saline) 107 % of control; (dose: 240.0 mg/kg/injection, schedule: Q01DX005 (ip), vehicle: saline) 96 % of control.

Turning to `COc1ccc(C2C3CCCC(C3=O)C(c3ccc(OC)cc3)N2C)cc1` (centres undefined), the T/C is 99 % of control (dose: 100.0 mg/kg/injection, schedule: Q04DX003 (ip), vehicle: saline); 97 % of control (dose: 200.0 mg/kg/injection, schedule: Q04DX003 (ip), vehicle: saline); 96 % of control (dose: 400.0 mg/kg/injection, schedule: Q04DX003 (ip), vehicle: saline).

For the compound `C=CC12COC(=O)C(=C)C1C1OC(=O)C(=C)C1CC2O` (centres undefined), the T/C by setting is: (dose: 0.75 mg/kg/injection, schedule: Q01DX009 (ip), vehicle: saline) 120 % of control; (dose: 1.5 mg/kg/injection, schedule: Q01DX009 (ip), vehicle: saline) 123 % of control; (dose: 3.0 mg/kg/injection, schedule: Q01DX009 (ip), vehicle: saline) 118 % of control; (dose: 6.0 mg/kg/injection, schedule: Q01DX009 (ip), vehicle: saline) 120 % of control.

Regarding `CNC(=O)C(C(=O)NC)n1cnc(C(=O)OC)c1O`, the T/C (dose: 60.0 mg/kg/injection, schedule: Q01DX005 (ip), vehicle: water) was 108 % of control; the T/C (dose: 120.0 mg/kg/injection, schedule: Q01DX005 (ip), vehicle: water) was 107 % of control; the T/C (dose: 240.0 mg/kg/injection, schedule: Q01DX005 (ip), vehicle: water) was 107 % of control.

As to `O=C1OC(c2ccccc2)=N/C1=C\c1ccc(Br)cc1`, the T/C by setting is: under setting [1], 93 % of control; (dose: 100.0 mg/kg/injection, schedule: Q01DX005 (ip), vehicle: Klucel (hydroxypropylcellulose) (HPC)) 87 % of control and 95 % of control; (dose: 200.0 mg/kg/injection, schedule: Q01DX005 (ip), vehicle: Klucel (hydroxypropylcellulose) (HPC)) 87 % of control.

For `C=CCC1(C(C)C(O)c2cc(OC)c(OC)c(OC)c2)CC(O)C=CC12OCCO2` (centres undefined), the T/C runs as follows: (dose: 1.25 mg/kg/injection, schedule: Q01DX005 (ip), vehicle: acid diluted with saline) 94 % of control; (dose: 2.5 mg/kg/injection, schedule: Q01DX005 (ip), vehicle: acid diluted with saline) 103 % of control; (dose: 5.0 mg/kg/injection, schedule: Q01DX005 (ip), vehicle: acid diluted with saline) 100 % of control; (dose: 10.0 mg/kg/injection, schedule: Q01DX005 (ip), vehicle: acid diluted with saline) 100 % of control.

Regarding `C/C(=N/N=C(N)N)c1cnn(C(=N)N)c1C`, the T/C by setting is: (dose: 60.0 mg/kg/injection, schedule: Q01DX005 (ip), vehicle: Klucel (hydroxypropylcellulose) (HPC)) 99 % of control; (dose: 120.0 mg/kg/injection, schedule: Q01DX005 (ip), vehicle: Klucel (hydroxypropylcellulose) (HPC)) 114 % of control.

For `CCCN(CCC)CC(C)(C)C(O)c1ccc(OC)c2ccccc12` (centres undefined), the T/C was 110 % of control (dose: 25.0 mg/kg/injection, schedule: Q01DX005 (ip), vehicle: saline with Tween-80) and 108 % of control (dose: 50.0 mg/kg/injection, schedule: Q01DX005 (ip), vehicle: saline with Tween-80).

Regarding `CC1(C)N=C(N)N=C(N)N1c1ccc(CCCCc2cccc(S(=O)(=O)F)c2)c(Cl)c1`, the T/C (dose: 0.11 mg/kg/injection, schedule: Q01DX009 (ip), vehicle: saline with Tween-80) was 107 % of control; the T/C (dose: 0.17 mg/kg/injection, schedule: Q01DX009 (ip), vehicle: saline with Tween-80) was 111 % of control; the T/C (dose: 0.25 mg/kg/injection, schedule: Q01DX009 (ip), vehicle: saline with Tween-80) was 115 % of control; the T/C (dose: 0.66 mg/kg/injection, schedule: Q01DX009 (ip), vehicle: saline with Tween-80) is 107 % of control; the T/C (dose: 1.0 mg/kg/injection, schedule: Q01DX009 (ip), vehicle: saline with Tween-80) is 109 % of control; the T/C (dose: 3.3 mg/kg/injection, schedule: Q01DX009 (ip), vehicle: saline with Tween-80) is 160 % of control. Moreover, the T/C reads like this: (dose: 5.0 mg/kg/injection, schedule: Q01DX009 (ip), vehicle: saline with Tween-80) 150 % of control; (dose: 6.25 mg/kg/injection, schedule: Q01DX009 (ip), vehicle: saline with Tween-80) 150 % of control; (dose: 7.5 mg/kg/injection, schedule: Q01DX009 (ip), vehicle: saline with Tween-80) 155 % of control; (dose: 8.0 mg/kg/injection, schedule: Q01DX009 (ip), vehicle: saline with Tween-80) 154 % of control; (dose: 8.0 mg/kg/injection, schedule: Q01DX009 (ip), vehicle: saline) 157 % of control; (dose: 12.0 mg/kg/injection, schedule: Q01DX009 (ip), vehicle: saline with Tween-80) 163 % of control. Moreover, the T/C runs as follows: (dose: 12.0 mg/kg/injection, schedule: Q01DX009 (ip), vehicle: saline) 154 % of control; (dose: 12.5 mg/kg/injection, schedule: Q01DX009 (ip), vehicle: saline with Tween-80) 150 % of control; (dose: 18.0 mg/kg/injection, schedule: Q01DX009 (ip), vehicle: saline with Tween-80) 150 % of control; (dose: 18.0 mg/kg/injection, schedule: Q01DX009 (ip), vehicle: saline) 181 % of control; (dose: 25.0 mg/kg/injection, schedule: Q01DX009 (ip), vehicle: saline with Tween-80) 95 % of control; (dose: 27.0 mg/kg/injection, schedule: Q01DX009 (ip), vehicle: saline with Tween-80) 150 % of control.

`CCOP(=O)(O)CC(=O)NC(CC(=O)O)C(=O)O` (centres undefined): the T/C under setting [2] was 100 % of control and 111 % of control; the T/C under setting [3] is 103 % of control and 108 % of control; the T/C under setting [4] is 106 % of control.

Turning to `Nc1c(Cl)c(Cl)cc(Cl)c1Cl`, the T/C was 100 % of control (dose: 100.0 mg/kg/injection, schedule: Q04DX003 (ip), vehicle: saline with Tween-80); 104 % of control (dose: 200.0 mg/kg/injection, schedule: Q04DX003 (ip), vehicle: saline with Tween-80); 104 % of control (dose: 400.0 mg/kg/injection, schedule: Q04DX003 (ip), vehicle: saline with Tween-80).

`Clc1ccc(-c2nc(CSc3ccccn3)cs2)cc1`: the T/C by setting is: (dose: 50.0 mg/kg/injection, schedule: Q01DX009 (ip), vehicle: saline) 102 % of control; (dose: 100.0 mg/kg/injection, schedule: Q01DX009 (ip), vehicle: saline) 109 % of control; (dose: 200.0 mg/kg/injection, schedule: Q01DX009 (ip), vehicle: saline) 105 % of control.

Turning to `CN(C)C1(c2ccc3ccccc3c2)CS(=O)(=O)C1`, the T/C by setting is: under setting [5], 100 % of control; (dose: 200.0 mg/kg/injection, schedule: Q04DX002 (ip), vehicle: saline with Tween-80) 98 % of control; (dose: 400.0 mg/kg/injection, schedule: Q04DX002 (ip), vehicle: saline with Tween-80) 92 % of control.

For the compound `[Br][Sn]([Br])([CH2]c1ccccc1)[c]1ccccc1`, the T/C reads like this: (dose: 1.56 mg/kg/injection, schedule: Q04DX003 (ip), vehicle: saline) 101 % of control and 102 % of control; (dose: 3.12 mg/kg/injection, schedule: Q04DX003 (ip), vehicle: saline) 99 % of control and 102 % of control; (dose: 6.25 mg/kg/injection, schedule: Q04DX003 (ip), vehicle: saline with Tween-80) 118 % of control; (dose: 6.25 mg/kg/injection, schedule: Q04DX003 (ip), vehicle: saline) 105 % of control and 106 % of control; (dose: 12.5 mg/kg/injection, schedule: Q04DX003 (ip), vehicle: saline) 99 % of control and 104 % of control.

In the case of `CC1(C)C(=O)NC(=O)c2ccccc21`, the T/C by setting is: (dose: 12.5 mg/kg/injection, schedule: Q01DX005 (ip), vehicle: Klucel (hydroxypropylcellulose) (HPC)) 107 % of control; (dose: 25.0 mg/kg/injection, schedule: Q01DX005 (ip), vehicle: Klucel (hydroxypropylcellulose) (HPC)) 107 % of control; under setting [1], 100 % of control and 102 % of control.

As for `NN=C(c1ccc(Br)cc1)c1ccc(Br)cc1`, the T/C is, setting by setting: (dose: 25.0 mg/kg/injection, schedule: Q04DX002 (ip), vehicle: saline with Tween-80) 100 % of control; (dose: 50.0 mg/kg/injection, schedule: Q04DX002 (ip), vehicle: saline with Tween-80) 101 % of control; under setting [5], 100 % of control and 105 % of control.

On to `CCOC(CNC(C)c1ccc2cc(OC)c(OC)cc2c1)OCC` (centres undefined), for which the T/C by setting is: (dose: 25.0 mg/kg/injection, schedule: Q01DX009 (ip), vehicle: Klucel (hydroxypropylcellulose) (HPC)) 100 % of control; under setting [2], 114 % of control; under setting [3], 116 % of control; under setting [4], 121 % of control.
